# Laboratory results published in the supplement of paper PMC10307832.
# Experiments:
# Test in all cases: relative viability (nuclei count vs DMSO), 5 days (fraction); higher = more cells survive
# [1] = tested on: PC-3 [JPC-3]
# Outline: (§1)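 Values are medians from duplicate plates. Each reflects relative viability, defined as the nuclei count of treated wells over that of vehicle wells. Lung cancer cell lines in 1536-well plates were pin-tool dosed one day after seeding with one drug alone or with a fixed anchor-drug dose plus five library-drug doses (not always all listed) in √10 steps, then fixed, stained and imaged at 4× after 5 days.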
# [2] = tested on: CAL-12T
# Outline: as §1
# [3] = tested on: NCI-H1915
# Outline: as §1
# [4] = tested on: BEN
# Outline: as §1
# [5] = tested on: NCI-H1651
# Outline: as §1
# [6] = tested on: NCI-H441
# Outline: as §1
# [7] = tested on: NCI-H1944
# Outline: as §1
# [8] = tested on: NCI-H460
# Outline: as §1
# [9] = tested on: 201T
# Outline: as §1
# [10] = tested on: NCI-H727
# Outline: as §1
# [11] = tested on: NCI-H2087
# Outline: as §1
# [12] = tested on: LCLC-97TM1
# Outline: as §1
# [13] = tested on: NCI-H2023
# Outline: as §1
# [14] = tested on: A-427
# Outline: as §1
# [15] = tested on: LC-2-ad
# Outline: as §1
# [16] = tested on: NCI-H1792
# Outline: as §1
# [17] = tested on: NCI-H520
# Outline: as §1
# [18] = tested on: NCI-H596
# Outline: as §1
# [19] = tested on: H3255
# Outline: as §1
# [20] = tested on: NCI-H1650
# Outline: as §1
# [21] = tested on: HCC-15
# Outline: as §1
smiles,measurement,setting,value
COc1cc(N2CCC(C(N)=O)CC2)ccc1Nc1nc(N)c(Cl)c(Nc2ccccc2S(=O)(=O)C(C)C)n1 [HG-5-88-01] + CC1(C)CCC(c2ccc(Cl)cc2)=C(CN2CCN(c3ccc(C(=O)NS(=O)(=O)c4ccc(N[C@H](CCN5CCOCC5)CSc5ccccc5)c(S(=O)(=O)C(F)(F)F)c4)cc3)CC2)C1 [Navitoclax] (partner 0.5 µM),relative viability,[1]; first compound 0.04 µM,0.837
same,relative viability,[1]; first compound 0.1265 µM,0.83
same,relative viability,[1]; first compound 0.4 µM,0.841
same,relative viability,[1]; first compound 1.265 µM,0.753
same,relative viability,[1]; first compound 4 µM,0.751
same,relative viability,[2]; first compound 0.04 µM,1.26
same,relative viability,[2]; first compound 0.1265 µM,1.15
same,relative viability,[2]; first compound 0.4 µM,1.18
same,relative viability,[2]; first compound 1.265 µM,1.14
same,relative viability,[2]; first compound 4 µM,1.02
same,relative viability,[3]; first compound 0.04 µM,0.771
same,relative viability,[3]; first compound 0.1265 µM,0.783
same,relative viability,[3]; first compound 0.4 µM,0.813
same,relative viability,[3]; first compound 1.265 µM,0.845
same,relative viability,[3]; first compound 4 µM,0.669
same,relative viability,[4]; first compound 0.04 µM,0.0887
same,relative viability,[4]; first compound 0.1265 µM,0.0551
same,relative viability,[4]; first compound 0.4 µM,0.0596
same,relative viability,[4]; first compound 1.265 µM,0.0568
same,relative viability,[4]; first compound 4 µM,0.0605
same,relative viability,[5]; first compound 0.04 µM,1.27
same,relative viability,[5]; first compound 0.1265 µM,1.04
same,relative viability,[5]; first compound 0.4 µM,1.08
same,relative viability,[5]; first compound 1.265 µM,1.05
same,relative viability,[5]; first compound 4 µM,1.04
same,relative viability,[6]; first compound 0.04 µM,0.661
same,relative viability,[6]; first compound 0.1265 µM,0.675
same,relative viability,[6]; first compound 0.4 µM,0.714
same,relative viability,[6]; first compound 1.265 µM,0.609
same,relative viability,[6]; first compound 4 µM,0.679
same,relative viability,[7]; first compound 0.04 µM,1.03
same,relative viability,[7]; first compound 0.1265 µM,1.15
same,relative viability,[7]; first compound 0.4 µM,1.11
same,relative viability,[7]; first compound 1.265 µM,0.985
same,relative viability,[7]; first compound 4 µM,1.04
same,relative viability,[8]; first compound 0.04 µM,0.975
same,relative viability,[8]; first compound 0.1265 µM,1.12
same,relative viability,[8]; first compound 0.4 µM,0.901
same,relative viability,[8]; first compound 1.265 µM,1.15
same,relative viability,[8]; first compound 4 µM,1.06
same,relative viability,[9]; first compound 0.04 µM,1.22
same,relative viability,[9]; first compound 0.1265 µM,1.22
same,relative viability,[9]; first compound 0.4 µM,1.28
same,relative viability,[9]; first compound 1.265 µM,1.18
same,relative viability,[9]; first compound 4 µM,1.17
same,relative viability,[10]; first compound 0.04 µM,0.532
same,relative viability,[10]; first compound 0.1265 µM,0.416
same,relative viability,[10]; first compound 0.4 µM,0.469
same,relative viability,[10]; first compound 1.265 µM,0.224
same,relative viability,[10]; first compound 4 µM,0.0929
same,relative viability,[11]; first compound 0.04 µM,0.902
same,relative viability,[11]; first compound 0.1265 µM,1.06
same,relative viability,[11]; first compound 0.4 µM,1.03
same,relative viability,[11]; first compound 1.265 µM,0.971
same,relative viability,[11]; first compound 4 µM,0.943
same,relative viability,[12]; first compound 0.04 µM,0.374
same,relative viability,[12]; first compound 0.1265 µM,0.689
same,relative viability,[12]; first compound 0.4 µM,0.347
same,relative viability,[12]; first compound 1.265 µM,0.296
same,relative viability,[12]; first compound 4 µM,0.321
same,relative viability,[13]; first compound 0.04 µM,1.01
same,relative viability,[13]; first compound 0.1265 µM,0.94
same,relative viability,[13]; first compound 0.4 µM,0.934
same,relative viability,[13]; first compound 1.265 µM,0.787
same,relative viability,[13]; first compound 4 µM,0.804
same,relative viability,[14]; first compound 0.04 µM,0.97
same,relative viability,[14]; first compound 0.1265 µM,1.04
same,relative viability,[14]; first compound 0.4 µM,0.956
same,relative viability,[14]; first compound 1.265 µM,1.04
same,relative viability,[14]; first compound 4 µM,0.835
same,relative viability,[15]; first compound 0.04 µM,0.444
same,relative viability,[15]; first compound 0.1265 µM,0.45
same,relative viability,[15]; first compound 0.4 µM,0.477
same,relative viability,[15]; first compound 1.265 µM,0.379
same,relative viability,[15]; first compound 4 µM,0.278
same,relative viability,[16]; first compound 0.04 µM,0.685
same,relative viability,[16]; first compound 0.1265 µM,0.614
same,relative viability,[16]; first compound 0.4 µM,0.578
same,relative viability,[16]; first compound 1.265 µM,0.685
same,relative viability,[16]; first compound 4 µM,0.738
same,relative viability,[17]; first compound 0.04 µM,1.09
same,relative viability,[17]; first compound 0.1265 µM,1.09
same,relative viability,[17]; first compound 0.4 µM,0.761
same,relative viability,[17]; first compound 1.265 µM,1.17
same,relative viability,[17]; first compound 4 µM,1.26
same,relative viability,[18]; first compound 0.04 µM,0.943
same,relative viability,[18]; first compound 0.1265 µM,0.98
same,relative viability,[18]; first compound 0.4 µM,1.06
same,relative viability,[18]; first compound 1.265 µM,1.02
same,relative viability,[18]; first compound 4 µM,0.901
same,relative viability,[19]; first compound 0.04 µM,0.506
same,relative viability,[19]; first compound 0.1265 µM,0.467
same,relative viability,[19]; first compound 0.4 µM,0.428
same,relative viability,[19]; first compound 4 µM,0.138
same,relative viability,[20]; first compound 0.04 µM,1.54
same,relative viability,[20]; first compound 0.1265 µM,1.32
same,relative viability,[20]; first compound 0.4 µM,1.26
same,relative viability,[20]; first compound 1.265 µM,0.918
same,relative viability,[20]; first compound 4 µM,1.07
same,relative viability,[21]; first compound 0.04 µM,0.702
same,relative viability,[21]; first compound 0.1265 µM,0.74
same,relative viability,[21]; first compound 0.4 µM,0.672
same,relative viability,[21]; first compound 1.265 µM,0.723
same,relative viability,[21]; first compound 4 µM,0.464
